Test results: publication PMC6736568, “Discovery of Novel Anti-cryptosporidial Activities From Natural Products by in vitro High-Throughput Phenotypic Screening” (Frontiers in Microbiology, 2019)
Structures can show the parent of a compound that is named as a salt. Where two headings read alike, the source gives them in different places.

Columns and labels:
Cryptosporidium parvum = test: qRT-PCR assay of the growth of C. parvum in vitro in HCT-8 host cells (primary and secondary screening, EC50); assay type: cell-based; conditions: Cryptosporidium parvum, HCT-8; for inhibition at 10 µM: primary screening at 10 uM, read-out: Inhibition (%); for inhibition at 3.3 µM: secondary screening at 3.3 uM, read-out: % Inhibition (3.3 uM)
[1] = primary screening at 10 uM, treated vs control

| SMILES | Hs18S ΔCT (HCT-8 host cells (Hs18S); human, 41 h, 10 μM) | cytotoxicity at 41 h, 10 µM (in vitro; human) [%] | inhibition at 10 µM (Cryptosporidium parvum) [%] | inhibition at 3.3 µM (Cryptosporidium parvum) [%] | Hs18S ΔCT (HCT-8 host cells (Hs18S); [1]) | cytotoxicity at 10 µM (in vitro) [%] | cytotoxicity at 41 h, 10 µM (in vitro) [%] |
| --- | --- | --- | --- | --- | --- | --- | --- |
| COC1=CC(=O)C(C(=O)c2ccccc2)=CC1=O [2-BENZOYL-5-METHOXYBENZOQUINONE] | -0.59 | -50.7 | 16.2 |  |  |  |  |
| COc1ccc(C(=O)O)c(O)c1OC [2-HYDROXY-3,4-DIMETHOXYBENZOIC ACID] | 0.16 | 10.5 | 7.69 |  |  |  |  |
| CC1(C)CC2C1CCC1(C)OC1CCC2(C)O (centres unmarked) [2-HYDROXY-5 (6)EPOXY-TETRAHYDROCARYOPHYLLENE] | -0.15 | -10.9 | 46.2 |  |  |  |  |
| COC1(C)CCC2OC2(C)CCC2C1CC2(C)C (centres unmarked) [2-METHOXY-5 (6)EPOXY-TETRAHYDROCARYOPHYLLENE] | -0.15 | -11.1 | -24.7 |  |  |  |  |
| COc1c(O)cccc1O [2-METHOXYRESORCINOL] | -0.20 | -15 | 20.3 |  |  |  |  |
| Cc1[nH]c2ccccc2c1CN(C)C [2-METHYL GRAMINE] | -0.11 | -7.5 | 0.92 |  |  |  |  |
| C=C[C@@H](C1=CC(=O)C(OC)=C(OC)C1=O)c1ccccc1 [3,4-DIMETHOXYDALBERGIONE] | 0.06 | 3.8 | 11.6 |  |  |  |  |
| COc1ccc2c(=O)c(OC)c(-c3ccccc3)oc2c1 [3,7-DIMETHOXYFLAVONE] | -0.21 | -15.4 | 49.7 |  |  |  |  |
| CC1(C)CC2C1CCC1(C)OC2(C)CCC1O (centres unmarked) [3,7-EPOXYCARYOPHYLLAN-6-OL] | 0.11 | 7.2 | 12.9 |  |  |  |  |
| CC12CCC3C(CC3(C)C)C(C)(CCC1=O)O2 (centres unmarked) [3,7-EPOXYCARYOPHYLLAN-6-ONE] | 0.27 | 17 | 13.1 |  |  |  |  |
| COC(=O)C[C@H]1C(C)(C)[C@@H](O)[C@@H]2CC3=C4CC(O)O[C@@H](c5ccoc5)[C@]4(C)CCC3[C@@]1(C)C2=O (stereo partly drawn) [3,16-DIDEOXYMEXICANOLIDE-3beta-DIOL] | -0.18 | -13.4 | 87.5 | 52 |  |  |  |
| C=C1C(N)CC2CC1C2(C)C (stereo not drawn) [3-AMINO-beta-PINENE] | 0.42 | 25.3 | 19.2 |  |  |  |  |
| COc1ccc2c(c1)OC[C@@H](Cc1ccc(OC)c(OC)c1)[C@@H]2O [3-DESHYDROXYSAPPANOL TRIMETHYL ETHER] | 0.05 | 3.2 | 7.69 |  |  |  |  |
| O=c1oc2ccccc2cc1O [3-HYDROXYCOUMARIN] | -0.21 | -15.7 | -39.6 |  |  |  |  |
| O=c1c(O)c(-c2ccccc2)oc2ccccc12 [3-HYDROXYFLAVONE] | -0.04 | -2.7 | 92.4 | -28 |  |  |  |
| COc1cccc(O)c1O [3-METHOXYCATECHOL] | 0.05 | 3.2 | -66.7 |  |  |  |  |
| Cc1cc(O)c(C)c(O)c1C(=O)O [3-METHYLORSELLINIC ACID] | 0.05 | 3.6 | 30.8 |  |  |  |  |
| CC1(C)CC23C(=O)CCC(O)C2(C)CCC13 (centres unmarked) [3-NOR-3-OXOPANASINSAN-6-OL] | 0.24 | 15.3 | 23.9 |  |  |  |  |
| CC1/C(=N/O)C[C@@H]2C[C@H]1C2(C)C (some centres unmarked) [3-PINANONE OXIME] | 0.02 | 1.5 | -6.18 |  |  |  |  |
| C[C@]12CC[C@@H](O)C[C@H]1CCc1ccccc12 [3alpha-HYDROXY-4,4-BISNOR-8,11,13-PODOCARPATRIENE] | -0.06 | -4.1 | -50.2 |  |  |  |  |
| O=C(/C=C/c1ccccc1)c1ccc(O)cc1 [4'-HYDROXYCHALCONE] | 0.33 | 20.5 | 9.45 |  |  |  |  |
| COc1ccc(C(=O)/C=C/c2ccccc2)cc1 [4'-METHOXYCHALCONE] |  | -12 | 20 |  | -0.16 |  |  |
| COc1ccc(-c2cc(=O)c3ccccc3o2)cc1 [4'-METHOXYFLAVONE] |  | -6.3 | 44.4 |  | -0.09 |  |  |
| C=CC(C1=CC(=O)C(OC)=CC1=O)c1ccc(OC)cc1 (centres unmarked) [4,4'-DIMETHOXYDALBERGIONE] | -0.01 | -0.7 | -34.2 |  |  |  |  |
| CC(=O)Oc1ccc(O)cc1 [4-ACETOXYPHENOL] | 0.21 | 13.4 | -14.1 |  |  |  |  |

| SMILES | Hs18S ΔCT (HCT-8 host cells (Hs18S); human, 41 h, 10 μM) | cytotoxicity at 41 h, 10 µM (in vitro; human) [%] | inhibition at 10 µM (Cryptosporidium parvum) [%] | inhibition at 3.3 µM (Cryptosporidium parvum) [%] | Hs18S ΔCT (HCT-8 host cells (Hs18S); [1]) | cytotoxicity at 10 µM (in vitro) [%] | cytotoxicity at 41 h, 10 µM (in vitro) [%] |
| --- | --- | --- | --- | --- | --- | --- | --- |
| C=CC(C1=CC(=O)C(OC)=CC1=O)c1ccccc1 (centres unmarked) [4-METHOXYDALBERGIONE] | -0.03 | -2.3 | -28.5 |  |  |  |  |
| Cc1cc(=O)oc2c(O)c(O)ccc12 [4-METHYLDAPHNETIN] | -0.22 | -16.6 | -23.7 |  |  |  |  |
| Cc1cc(=O)oc2cc(O)c(O)cc12 [4-METHYLESCULETIN] |  |  | -3.64 |  | 0.01 | 0.7 |  |
| Cc1c[nH]cn1 [4-METHYLIMIDAZOLE] |  |  | -27.8 |  | 0.18 | 11.5 |  |
| CCCCCCCCCc1ccc(O)cc1 [4-NONYLPHENOL] |  |  | 83.1 | -181 | 0.14 | 9.2 |  |
| CC(C)CCC[C@@H](C)[C@H]1CC[C@H]2[C@@H]3CC(=O)[C@H]4C[C@@H](O)CC[C@]4(C)[C@H]3CC[C@]12C [5alpha-CHOLESTAN-3beta-OL-6-ONE] |  |  | -27.8 |  | 0.53 |  | 30.6 |
| COc1cccc(-c2cc(=O)c3cc(OC)ccc3o2)c1 [6,3'-DIMETHOXYFLAVONE] | -0.08 | -5.6 | 1.27 |  |  |  |  |
| O=c1cc(-c2ccccc2)oc2ccc(O)cc12 [6-HYDROXYFLAVONE] | 0.08 | 5.6 | 40 |  |  |  |  |
| O=c1cc(-c2ccccc2)oc2c(O)c(O)ccc12 [7,8-DIHYDROXYFLAVONE] |  |  | 49.3 |  | 0.49 | 28.8 |  |
| O=c1cc(-c2ccccc2)oc2cc(O)ccc12 [7-HYDROXYFLAVONE] |  |  | 9.24 |  | 0.17 | 10.8 |  |
| COc1ccc2c(=O)ccoc2c1 [7-METHOXYCHROMONE] | -0.34 | -26.1 | -17.1 |  |  |  |  |
| CC(=O)O[C@H]1CC[C@@]2(C)C(=CC(=O)[C@H]3[C@@H]4CC[C@H]([C@H](C)CCCC(C)C)[C@@]4(C)CC[C@@H]32)C1 [7-OXOCHOLESTERYL ACETATE] | -0.20 | -15.2 | -24.9 |  |  |  |  |
| CC1(C)C(=O)[C@@H]2C[C@@]3(O)C4=CC(=O)O[C@@H](c5ccoc5)[C@]4(C)CC[C@@H]3[C@@](C)(C2=O)[C@H]1CC(=O)O [8-HYDROX[…]] |  |  | -11 |  | 1.43 | 63 |  |
| COC(=O)C[C@H]1C(C)(C)C2(O)OC34CC2C(=O)[C@]1(C)C3CC[C@]1(C)C4=CC(=O)O[C@H]1c1ccoc1 (stereo partly drawn) [8beta-HYDROXYCARAPIN, 3,8-HEMIACETAL] | 0.18 | 11.8 | 89.7 | 64 |  |  |  |
| COc1cc2c(cc1OC)C1(O)C(=O)c3ccc(O)c(C(=O)O)c3OC1CO2 (centres unmarked) [12a-HYDROXY-9-DEMETHYLMUNDUSERONE-8-CARBOXYLIC ACID] |  |  | 0.54 |  | 0.06 | 4.1 |  |
| Cc1ccc2c(c1)CC[C@H]1CC(=O)CC[C@]21C [13-METHYL-4,4-BISNOR-8,11,13-PODOCARPATRIEN-3-ONE] | -0.03 | -2 | -31.4 |  |  |  |  |
| C/C1=C\CCC(=O)C2CC(C)(C)C2CC1 (centres unmarked) [15-NORCARYOPHYLLEN-3-ONE] | -0.05 | -3.6 | -15.7 |  |  |  |  |
| CC(C)c1ccc2c(c1)CC[C@H]1[C@](C)(CN)CCC[C@]21C [18-AMINOABIETA-8,11,13-TRIENE SULFATE] | -0.19 | -13.9 | 47.6 |  |  |  |  |
| CC(=O)OCC(=O)[C@H]1CC[C@H]2[C@@H]3CC=C4C[C@@H](O)CC[C@]4(C)[C@H]3CC[C@]12C [21-ACETOXYPREGNENOLONE] | 0.10 | 6.5 | -41.2 |  |  |  |  |
| CC(C)C1=CC2=CC[C@@H]3[C@](C)(CCC[C@@]3(C)C(=O)O)[C@H]2CC1 [ABIETIC ACID] |  |  | -58.3 |  | -0.39 | -30.7 |  |
| C[C@H]1O[C@H](O[C@H]2[C@H](O)[C@@H](O)[C@@H](O[C@H]3[C@H](O)[C@@H](O)C(O)O[C@@H]3CO)O[C@@H]2CO)[C@H](O)[C@@H](O)[C@@H]1N[C@H]1C=C(CO)[C@@H](O)[C@H](O)[C@H]1O (some centres unmarked) [ACARBOSE] | 0.39 | 23.6 | 37.8 |  |  |  |  |
| COc1cc(C(C)=O)cc(OC)c1O [ACETOSYRINGONE] | -0.06 | -4 | -26.9 |  |  |  |  |
| CC(=O)Oc1c2c(c(CC=C(C)C)c3c1C(=O)C1=C[C@@H]4CC5C(C)(C)OC(C/C=C(\C)C(=O)O)(C4=O)[C@@]15O3)OC(C)(CCC=C(C)C)C=C2 (some centres unmarked) [ACETYL I[…]] |  |  | 95.2 | 27 | 1.57 | 66.4 |  |
| O=C(O)/C=C(\CC(=O)O)C(=O)O [ACONITIC ACID] | -0.01 | -0.7 | -3.59 |  |  |  |  |
